# In patent US20260325464A1, “COMPOSITIONS FOR MODULATING THE EXPRESSION OF AQUAPORINS IN NEURODEGENERATIVE DISORDERS” (priority 2023, published 2026):
# System: Parkinson's disease
# Test: Y-maze test in rats with reserpine-induced Parkinson's disease
# Assay type: in vivo, rat
# Details: for No of arm entries / Spontaneous alterations (%): p.o. + Reserpine (4 mg/kg, s.c.), Y maze, Mean ± SEM, n = 6
# Description: The induction of Parkinson's disease and measurement of other parameters were done as per the reported protocol (Santos et al., Cognitive, motor and tyrosine hydroxylase temporal impairment in a model of parkinsonism induced by reserpine. Behav Brain Res. 2013; 253:68-77 and Shishehbore et al. A novel kinetic spectrophotometric method for the determination of dopamine in biological and pharmaceutical samples. J Chem. 2013; 2013:1-6). Induction of Parkinson's disease was done by administering Resperine, which inhibits the monoamine vesicular transporters, thus decreasing the levels of monoamine neurotransmitters in the brain. Following pretreatment for 14 days with Gingerenone A, the rat groups received subcutaneous injections of reserpine (4 mg/kg) for the final five days of the treatment regimen. Resperine (5 mg) was dissolved in 1 ml of 1% acetic acid and then diluted tenfold with distilled water to achieve a final concentration of 500 μg/ml. The normal control group received saline with 1% acetic acid […], administered from day 10 to day 14. Thirty minutes following the administration of reserpine on the 14th day, behavioural assessments were conducted using the Open Field test, Y Maze, and Catalepsy tests to evaluate changes. Rats administered with Carbidopa, a known drug for the management of Parkinson's disease was also used for comparison. Upon completion of the study, brains were harvested for biochemical analyses and histopathological studies. The experimental group is depicted in table 10.
# Y-maze test—In the Y-maze test, spontaneous alterations serve as an indicator of working short-term memory.
# The maze consisted of a triangular central area with three equilateral arms labeled A, B, and C, each measuring 35 cm in length, 25 cm in height, and 10 cm in width. During the test, each rat was placed in the central area, facing one of the arms. An entry was scored when all four paws of the rat entered an arm. Spontaneous alterations in behavior were defined as consecutive entries into different arms (e.g., ABC, BCA, or CAB, but not CAC). The maximum number of spontaneous alterations ([…]) and the percentage of spontaneous alterations (actual number of alterations divided by the maximum alterations, multiplied by 100) were calculated for each rat (Kraeuter et al., The Y-Maze for Assessment of Spatial Working and Reference Memory in Mice. Methods Mol Biol. 2019; 1916:105-111).
smiles,measurement,setting,value
COc1cc(CC/C=C/C(=O)CCc2ccc(O)c(OC)c2)ccc1O [Gingerenone A],No of arm entries,5 mg/kg,9.37 ± 0.29
same,Spontaneous alterations (%),5 mg/kg,21.43 ± 1.08 %
same,No of arm entries,10 mg/kg,11.57 ± 0.92
same,Spontaneous alterations (%),10 mg/kg,26.87 ± 1.05 %
same,No of arm entries,20 mg/kg,12.09 ± 1.39
same,Spontaneous alterations (%),20 mg/kg,26.21 ± 0.98 %
same,working memory in Y-maze (in words),"reserpine model, Table 12",significantly increase the working memory with increase in entries in the different arms with more number of alterations
